Laboratory results as given in ChEMBL document CHEMBL3112450, “Synthesis and in vitro antitumor evaluation of primary amine substituted quinazoline linked benzimidazole” (Bioorg Med Chem Lett, 2014).

Columns and labels:
Assay type in all cases: functional
RPMI-8226 = assay: Cytotoxicity against human RPMI8226 cells assessed as growth inhibition at 10 uM after 48 hrs by SRB assay; settings: RPMI-8226, 48 h, read-out: GI
T47D = assay: Cytotoxicity against human T47D cells assessed as growth inhibition at 10 uM after 48 hrs by SRB assay; settings: read-out: GI
OVCAR-8 = assay: Cytotoxicity against human OVCAR8 cells assessed as growth inhibition at 10 uM after 48 hrs by SRB assay; settings: OVCAR-8, 48 h, read-out: GI
NCI-H460 = assay: Cytotoxicity against human NCI-H460 cells assessed as cell growth at 10^-6 M after 48 hrs by SRB assay; settings: NCI-H460, 48 h, read-out: Activity
COLO 205 = assay: Cytotoxicity against human COLO205 cells assessed as cell growth at 10^-8 M after 48 hrs by SRB assay; settings: COLO 205, 48 h, read-out: Activity
MDA-MB-231 = assay: Cytotoxicity against human MDA-MB-231 cells assessed as cell growth at 10^-7 M after 48 hrs by SRB assay; settings: MDA-MB-231, 48 h, read-out: Activity
HCC 2998 = assay: Cytotoxicity against human HCC2998 cells assessed as cell growth at 10^-8 M after 48 hrs by SRB assay; settings: HCC 2998, 48 h, read-out: Activity
[1] = Cytotoxicity against human NCI-ADR-RES cells assessed as cell growth at 10^-8 M after 48 hrs by SRB assay; settings: read-out: Activity
[2] = Cytotoxicity against human UO31 cells assessed as cell growth at 10^-4 M after 48 hrs by SRB assay; settings: UO-31, 48 h, read-out: Activity
RXF 393 [3] = assay: Cytotoxicity against human RXF393 cells assessed as cell growth at 10^-4 M after 48 hrs by SRB assay; settings: RXF 393, 48 h, read-out: Activity
LOX IMVI = assay: Cytotoxicity against human LOXIMVI cells assessed as cell growth at 10^-4 M after 48 hrs by SRB assay; settings: read-out: Activity
TK-10 [4] = assay: Cytotoxicity against human TK10 cells assessed as cell growth at 10^-6 M after 48 hrs by SRB assay; settings: TK-10, 48 h, read-out: Activity
SF-268 = assay: Cytotoxicity against human SF268 cells assessed as cell growth at 10^-4 M after 48 hrs by SRB assay; settings: SF-268, 48 h, read-out: Activity
MOLT-4 = assay: Cytotoxicity against human MOLT4 cells assessed as cell growth at 10^-7 M after 48 hrs by SRB assay; settings: MOLT-4, 48 h, read-out: Activity
SW-620 [5] = assay: Cytotoxicity against human SW620 cells assessed as cell growth at 10^-7 M after 48 hrs by SRB assay; settings: SW-620, 48 h, read-out: Activity
[6] = Cytotoxicity against human Hs578T cells assessed as cell growth at 10^-6 M after 48 hrs by SRB assay; settings: Hs-578T, read-out: Activity
SK-MEL-28 = assay: Cytotoxicity against human SK-MEL-28 cells assessed as cell growth at 10^-4 M after 48 hrs by SRB assay; settings: SK-MEL-28, 48 h, read-out: Activity
SK-MEL-2 = assay: Cytotoxicity against human SK-MEL-2 cells assessed as cell growth at 10^-7 M after 48 hrs by SRB assay; settings: SK-MEL-2, 48 h, read-out: Activity
SNB-19 = assay: Cytotoxicity against human SNB19 cells assessed as cell growth at 10^-8 M after 48 hrs by SRB assay; settings: SNB-19, 48 h, read-out: Activity
U-251 [7] = assay: Cytotoxicity against human U251 cells assessed as cell growth at 10^-4 M after 48 hrs by SRB assay; settings: U-251, 48 h, read-out: Activity
HT-29 = assay: Cytotoxicity against human HT-29 cells assessed as cell growth at 10^-4 M after 48 hrs by SRB assay; settings: HT-29, 48 h, read-out: Activity
HCT-15 = assay: Cytotoxicity against human HCT15 cells assessed as cell growth at 10^-8 M after 48 hrs by SRB assay; settings: HCT-15, 48 h, read-out: Activity
SW-620 [8] = assay: Cytotoxicity against human SW620 cells after 48 hrs by SRB assay; settings: SW-620, 48 h
HOP-62 = assay: Cytotoxicity against human HOP62 cells assessed as cell growth at 10^-7 M after 48 hrs by SRB assay; settings: HOP-62, 48 h, read-out: Activity
K562 = assay: Cytotoxicity against human K562 cells assessed as cell growth at 10^-6 M after 48 hrs by SRB assay; settings: K562, 48 h, read-out: Activity
ACHN = assay: Cytotoxicity against human ACHN cells assessed as cell growth at 10^-7 M after 48 hrs by SRB assay; settings: read-out: Activity
MDA-MB-435 = assay: Cytotoxicity against human MDA-MB-435 cells after 48 hrs by SRB assay; settings: MDA-MB-435, 48 h
[9] = Cytotoxicity against human NCI-ADR-RES cells after 48 hrs by SRB assay
[10] = Cytotoxicity against human OVCAR4 cells assessed as cell growth at 10^-6 M after 48 hrs by SRB assay; settings: OVCAR-4, 48 h, read-out: Activity
DU-145 = assay: Cytotoxicity against human DU145 cells after 48 hrs by SRB assay; settings: DU-145, 48 h
TK-10 [11] = assay: Cytotoxicity against human TK10 cells assessed as cell growth at 10^-4 M after 48 hrs by SRB assay; settings: TK-10, 48 h, read-out: Activity
Malme-3M = assay: Cytotoxicity against human MALME-3M cells assessed as cell growth at 10^-4 M after 48 hrs by SRB assay; settings: read-out: Activity
U-251 [12] = assay: Cytotoxicity against human U251 cells after 48 hrs by SRB assay; settings: U-251, 48 h
SF-295 = assay: Cytotoxicity against human SF295 cells after 48 hrs by SRB assay; settings: SF-295, 48 h
HCT-116 = assay: Cytotoxicity against human HCT116 cells assessed as cell growth at 10^-7 M after 48 hrs by SRB assay; settings: HCT-116, 48 h, read-out: Activity
RXF 393 [13] = assay: Cytotoxicity against human RXF393 cells assessed as cell growth at 10^-6 M after 48 hrs by SRB assay; settings: RXF 393, 48 h, read-out: Activity
SR = assay: Cytotoxicity against human SR cells after 48 hrs by SRB assay
[14] = Cytotoxicity against human EKVX cells assessed as cell growth at 10^-5 M after 48 hrs by SRB assay; settings: read-out: Activity

In the case of `C=CCn1c(C)nc2cc(Nc3nc(NCCO)nc4ccccc34)ccc21`, the inhibition of growth at 10 µM (RPMI-8226) is reported as 30%, the inhibition of growth at 10 µM (T47D) is reported as 30% and the inhibition of growth at 10 µM (OVCAR-8) is reported as 30%.

With `C=CCn1c(C)nc2cc(Nc3nc(Nc4ccc5nc(C)n(CC=C)c5c4)c4ccccc4n3)ccc21` the growth at 1 µM (NCI-H460) was -53%, the growth at 0.01 µM (COLO 205) was 101% and the growth at 0.1 µM (MDA-MB-231) was 101%. The growth at 0.01 µM (HCC 2998) was 99%, the growth at 0.01 µM [1] was 103% and the growth at 100 µM [2] was -56%. The growth at 100 µM (RXF 393 [3]) was -31%, the growth at 100 µM (LOX IMVI) was -71% and the growth at 1 µM (TK-10 [4]) was 30%. The growth at 100 µM (SF-268) was -82%, the growth at 0.1 µM (MOLT-4) was 91% and the growth at 0.1 µM (SW-620 [5]) was 98%. For the same compound, the growth at 1 µM [6] was 94%, the growth at 100 µM (SK-MEL-28) was -48% and the growth at 0.1 µM (SK-MEL-2) was 98%. For the same compound, the growth at 0.01 µM (SNB-19) was 91%, the growth at 100 µM (U-251 [7]) was -31% and the growth at 100 µM (HT-29) was -50%. For the same compound, the growth at 0.01 µM (HCT-15) was 101%, the GI50 (SW-620 [8]) was 195 nM and the TGI (SW-620 [8]) was 388 nM. The growth at 0.1 µM (HOP-62) was 99%, the growth at 1 µM (K562) was -45% and the growth at 0.1 µM (ACHN) was 103%. The GI50 (MDA-MB-435) was 532 nM, the TGI (MDA-MB-435) was 1820 nM and the GI50 [9] was 1840 nM. For the same compound, the LC50 [9] was over 100000 nM, the TGI [9] was 4430 nM and the growth at 1 µM [10] was -16%. The GI50 (DU-145) was 402 nM, the LC50 (50% lethal concentration) (DU-145) was 3760 nM and the TGI (DU-145) was 1410 nM. The growth at 100 µM (TK-10 [11]) was -63%, the growth at 100 µM (Malme-3M) was -42% and the GI50 (U-251 [12]) was 177 nM. For the same compound, the TGI (U-251 [12]) was 331 nM, the GI50 (SF-295) was 1440 nM and the LC50 (SF-295) was 5240 nM. The TGI (SF-295) was 2750 nM, the growth at 0.1 µM (HCT-116) was 102% and the growth at 1 µM (RXF 393 [13]) was 22%. It also gave a GI50 (SR) of 222 nM and an LC50 (SR) of over 100000 nM.

For `C=CCn1c(C)nc2ccc(Nc3nc(Nc4ncccn4)nc4ccccc34)cc21`, the inhibition of growth at 10 µM (RPMI-8226) was 30%, the inhibition of growth at 10 µM (T47D) was 40% and the growth at 10 µM [14] was 87.2%.

For `C=CCn1c(C)nc2cc(Nc3nc(Nc4ccc5nc(C)n(CC=C)c5c4)nc4ccccc34)ccc21`, the growth at 10 µM [14] was 97.1%.
